Experimental data taken from patent US20120289501A1, “Benzene-fused 6-membered oxygen-containing heterocyclic derivatives of bicyclic heteroaryls” (NOVARTIS AG, priority 2009, published 2012).
pIC50: −log10 of the molar value.

Assays:
IGF1R [1] = target: T1, IGF1R (Homo sapiens, UniProt P08069); test: Cellular IGF-1R assay: inhibition of IGF1R phosphorylation in transduced Hek293 cells, capture ELISA (MSD); type: cell-based; set-up: Hek293 cells transduced with the corresponding receptors; expressed in transfected cells; host or cells: Hek293 (Hek293-IGF1R)
Outline: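 Serum-starved Hek293 cells transduced with IGF1R or InsR were pre-incubated 1 h with 3-fold dilutions from 10 μM (0.1% DMSO), then stimulated 10 min with 1.0 ng/μL IGF or 5.0 ng/μL insulin. pTyr1135/1136 (pINSR Tyr1150/1151) was read by MSD capture ELISA, normalised to stimulated vs unstimulated window; IC50 from 4-parameter fit.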

GSK3beta = GSK3beta (Homo sapiens, UniProt P49841); test: Enzymatic kinase assay (filter-binding / flashplate, 33P incorporation); type: biochemical; settings: enzymatic kinase selectivity
Experimental: (§1) Two methods were used to analyze phosphorylated peptides and proteins produced by the listed tyrosine and serine/threonine-specific protein kinases: either using a filter-binding assay (FB), or using a flashplate assay (FP). The activities of protein kinases were assayed in the presence or absence of inhibitors, by measuring the incorporation of ^33P from [γ^33P]ATP into appropriate substrates.
(§2) 96-well polypropylene microplates were used to assay the activity in the FB mode. To determine the inhibitory activity of compounds 10 μL of compound dilutions were pipetted into 96-well plates followed by the addition of 10 μL of assay mix and 10 μL of individual enzymes. With the addition of the enzymes the reactions were initiated and continued at RT. The reactions were stopped by the addition of 50 μL of a 125 mM EDTA solution pH 8.0. The final concentration of DMSO in the enzyme assays was 1%.
(§3) Flashplates are available as 96-well standard (STFPs) or as streptavidin-(SAFPs) or nickel coated FPs (NiFPs) from Perkin Elmer. STFPs are 96-well polystyrene microplates in which the interior of each well is permanently coated with a thin layer of polystyrene-based scintillant. Streptavidin flashplates (SAFP) are 96 or 384-well STFPs coated with streptavidin. SAFPs are suitable for a wide variety of assay applications which utilize biotinylated capture molecules. NiFP or nickel chelate flashplates are 96- or 384-well STFPs coated with nickel chelate. NiFPs are designed for in-plate, radiometric assays which utilize 4- or 6-histidine tagged proteins and peptides.
(§4) All kinase assays were performed in STFPs for 60 mins at RT and stopped with 50 μL of 0.5% H3PO4 except PKA which were carried out in polypropylene 96- and 384-well plates, respectively. PKA assays were stopped with 50 μL of 125 mM EDTA (pH 8.0) and 50 μL were transferred to either SAFPs or NIFPs to capture the biotinylated or histidine tagged peptides phosphorylated by PKA (SAFP) or by NiFPs. All wells were then washed three times with 200 μL of 0.5% H3PO4 and the plates were dried at room temperature. The plates were sealed and counted in a microplate scintillation counter (TopCount NXT, TopCount NXT HTS). The final concentration of DMSO in the enzyme assays was 1%.

InsR = InsR (Homo sapiens, UniProt P06213); test: as above; type: biochemical; settings: enzymatic kinase selectivity
Experimental: as §1, §2, §3, §4

IGF1R [2] = target: T1, IGF1R; test: as above; type: biochemical; settings: enzymatic kinase selectivity
Experimental: as §1, §2, §3, §4

Chain of InsR (P06213 28-1382, species assumed): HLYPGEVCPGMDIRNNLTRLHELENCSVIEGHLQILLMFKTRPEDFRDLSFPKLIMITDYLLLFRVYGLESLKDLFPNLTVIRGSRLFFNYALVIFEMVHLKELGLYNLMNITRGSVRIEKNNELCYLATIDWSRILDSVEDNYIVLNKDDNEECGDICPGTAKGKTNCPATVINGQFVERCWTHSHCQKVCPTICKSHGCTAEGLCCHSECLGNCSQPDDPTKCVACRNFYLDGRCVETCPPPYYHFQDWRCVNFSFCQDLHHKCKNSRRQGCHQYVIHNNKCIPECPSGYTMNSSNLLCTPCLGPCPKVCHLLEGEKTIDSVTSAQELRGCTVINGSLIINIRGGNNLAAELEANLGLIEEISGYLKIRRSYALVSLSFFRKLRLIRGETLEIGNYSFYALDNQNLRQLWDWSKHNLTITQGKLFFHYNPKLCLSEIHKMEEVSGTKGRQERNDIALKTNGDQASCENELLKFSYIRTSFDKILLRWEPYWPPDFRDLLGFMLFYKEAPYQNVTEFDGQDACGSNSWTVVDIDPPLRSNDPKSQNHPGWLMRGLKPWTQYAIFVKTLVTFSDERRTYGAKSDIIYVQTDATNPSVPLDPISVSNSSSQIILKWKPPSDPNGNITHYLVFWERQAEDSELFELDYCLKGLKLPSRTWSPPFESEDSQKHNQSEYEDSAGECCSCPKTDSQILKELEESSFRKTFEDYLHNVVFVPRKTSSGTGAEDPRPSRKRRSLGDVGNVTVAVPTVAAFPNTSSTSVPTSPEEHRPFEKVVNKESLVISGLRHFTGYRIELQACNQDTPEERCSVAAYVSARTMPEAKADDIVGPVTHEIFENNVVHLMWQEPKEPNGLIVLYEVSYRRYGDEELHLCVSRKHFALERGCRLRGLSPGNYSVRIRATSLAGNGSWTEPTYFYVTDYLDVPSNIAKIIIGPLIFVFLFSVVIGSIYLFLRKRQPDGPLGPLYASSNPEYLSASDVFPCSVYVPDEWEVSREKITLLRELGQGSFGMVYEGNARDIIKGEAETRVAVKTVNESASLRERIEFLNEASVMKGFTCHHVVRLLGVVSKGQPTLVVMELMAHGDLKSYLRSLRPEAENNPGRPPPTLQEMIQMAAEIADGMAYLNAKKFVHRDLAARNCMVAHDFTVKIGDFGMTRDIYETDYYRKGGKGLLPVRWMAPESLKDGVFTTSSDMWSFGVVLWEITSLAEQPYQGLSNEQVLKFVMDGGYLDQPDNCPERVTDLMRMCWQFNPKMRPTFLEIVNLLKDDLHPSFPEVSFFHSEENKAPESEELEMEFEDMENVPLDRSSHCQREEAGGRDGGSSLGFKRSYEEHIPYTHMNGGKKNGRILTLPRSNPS
T1 sequence (P08069 31-1367): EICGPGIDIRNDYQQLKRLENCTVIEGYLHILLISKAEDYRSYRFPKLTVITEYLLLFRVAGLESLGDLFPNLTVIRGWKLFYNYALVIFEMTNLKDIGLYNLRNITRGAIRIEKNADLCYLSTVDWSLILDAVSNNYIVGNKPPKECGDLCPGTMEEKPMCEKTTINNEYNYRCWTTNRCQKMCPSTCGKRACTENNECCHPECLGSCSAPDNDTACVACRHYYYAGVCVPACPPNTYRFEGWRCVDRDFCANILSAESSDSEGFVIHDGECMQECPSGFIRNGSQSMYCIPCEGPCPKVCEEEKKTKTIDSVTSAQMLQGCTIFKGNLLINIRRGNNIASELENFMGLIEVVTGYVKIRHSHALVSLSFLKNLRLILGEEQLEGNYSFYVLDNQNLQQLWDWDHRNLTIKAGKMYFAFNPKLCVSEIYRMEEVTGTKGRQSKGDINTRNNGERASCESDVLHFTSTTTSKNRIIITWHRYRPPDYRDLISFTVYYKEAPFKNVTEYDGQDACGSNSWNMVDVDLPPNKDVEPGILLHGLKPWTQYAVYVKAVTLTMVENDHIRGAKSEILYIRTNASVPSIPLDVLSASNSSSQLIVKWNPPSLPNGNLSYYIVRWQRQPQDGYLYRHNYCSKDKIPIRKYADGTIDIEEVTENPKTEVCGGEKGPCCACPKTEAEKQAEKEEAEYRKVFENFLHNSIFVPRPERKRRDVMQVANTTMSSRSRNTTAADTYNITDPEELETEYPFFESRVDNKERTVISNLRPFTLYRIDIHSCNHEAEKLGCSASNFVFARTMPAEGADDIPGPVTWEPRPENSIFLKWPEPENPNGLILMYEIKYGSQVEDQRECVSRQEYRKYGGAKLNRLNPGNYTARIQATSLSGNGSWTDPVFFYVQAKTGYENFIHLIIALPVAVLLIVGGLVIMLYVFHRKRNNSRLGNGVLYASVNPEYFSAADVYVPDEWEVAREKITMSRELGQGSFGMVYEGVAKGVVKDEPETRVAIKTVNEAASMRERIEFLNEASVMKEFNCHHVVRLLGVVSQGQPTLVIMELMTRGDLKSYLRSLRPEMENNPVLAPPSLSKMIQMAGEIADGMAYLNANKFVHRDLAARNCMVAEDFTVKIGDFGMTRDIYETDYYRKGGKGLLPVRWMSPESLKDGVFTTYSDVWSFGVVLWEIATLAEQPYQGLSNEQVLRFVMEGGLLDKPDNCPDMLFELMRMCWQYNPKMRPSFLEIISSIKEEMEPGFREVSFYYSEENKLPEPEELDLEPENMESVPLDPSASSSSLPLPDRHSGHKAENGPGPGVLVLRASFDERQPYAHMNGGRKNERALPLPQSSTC
Chain of GSK3beta (P49841 whole entry, species assumed): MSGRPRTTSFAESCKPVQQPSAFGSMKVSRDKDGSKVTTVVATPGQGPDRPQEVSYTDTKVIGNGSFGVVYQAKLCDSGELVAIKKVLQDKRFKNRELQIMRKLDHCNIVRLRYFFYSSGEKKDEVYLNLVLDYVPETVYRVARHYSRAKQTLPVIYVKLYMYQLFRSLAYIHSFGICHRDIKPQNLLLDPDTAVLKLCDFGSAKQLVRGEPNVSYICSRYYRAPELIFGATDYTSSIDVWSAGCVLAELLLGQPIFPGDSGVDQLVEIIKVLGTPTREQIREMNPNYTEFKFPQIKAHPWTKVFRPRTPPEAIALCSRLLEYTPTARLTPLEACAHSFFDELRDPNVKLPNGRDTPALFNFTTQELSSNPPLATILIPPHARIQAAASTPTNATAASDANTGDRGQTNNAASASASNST

Row | pIC50 (IGF1R [1]) | IC50 (GSK3beta) | IC50 (InsR) | IC50 (IGF1R [2]) | SMILES
1 | 6.97 to 7.57 | > 10000 nM | 1450 nM | 58 nM | Nc1ncnc2c1c(-c1ccc3c(c1)OC(c1ccccc1)CC3)cn2C1CC(O)(CO)C1 (single isomer, unassigned) [Example 26]
2 | 7.96 | > 10000 nM | 100 nM | 17 nM | CC(=O)N1CCN([C@H]2C[C@@H](n3cc(-c4ccc5c(c4)OC(c4ccccc4)CC5)c4c(N)ncnc43)C2)CC1 (relative stereo) [Example 38, 1-(4-{cis-3-[4-Amino-5-(2-phenyl-chroman-7-yl)-pyrrolo[2,3-d]pyrimidin-7-yl]-cyclobutyl}-piperazin-1-yl)-ethanone]
3 | 8.05 | > 10000 nM | 73 nM | 7.8 nM | Nc1ncnc2c1c(-c1ccc3c(c1)OC(c1ccccc1)C=C3)cn2[C@H]1C[C@@H](CN2CCS(=O)(=O)CC2)C1 (mixture of isomers) [Example 21, (R,S)-7-[cis-3-(1,1-Dioxo-1-thiomorpholin-4-ylmethyl)-cyclobutyl]-5-(2-phenyl-2H-chromen-7-yl)-7H-pyrrolo[2,3-d]pyrimidin-4-ylamine]
4 | 7.66 | > 10000 nM | 780 nM | 50 nM | CC(=O)NC[C@H]1C[C@@H](n2cc(-c3ccc4c(c3)OC(c3ccccc3)CC4)c3c(N)ncnc32)C1 (mixture of isomers) [Example 16, (R,S)—N-{cis-3-[4-Amino-5-(2-phenyl-chroman-7-yl)-pyrrolo[2,3-d]pyrimidin-7-yl]-cyclobutylmethyl}-acetamide]
